Values quoted from earlier work as cited in patent publication US6391881B1, “Thiourea derivatives of dihydropyridine NPY antagonists” (Bristol-Myers Squibb Company, priority 2000, dated 2002).

How the values were obtained:
[1] = tested on: NPY-induced contractions in guinea pig basilar artery
[2] = target: T1, human neuroblastoma cells (SK-N-MC) (Homo sapiens, UniProt P25929)
T1 construct: displaces I-125 Bolton-Hunter labeled NPY in human neuroblastoma cells (SK-N-MC); host or cells: SK-N-MC human neuroblastoma cells (endogenous receptor; no transfection mentioned)
T1 sequence (P25929 1-384): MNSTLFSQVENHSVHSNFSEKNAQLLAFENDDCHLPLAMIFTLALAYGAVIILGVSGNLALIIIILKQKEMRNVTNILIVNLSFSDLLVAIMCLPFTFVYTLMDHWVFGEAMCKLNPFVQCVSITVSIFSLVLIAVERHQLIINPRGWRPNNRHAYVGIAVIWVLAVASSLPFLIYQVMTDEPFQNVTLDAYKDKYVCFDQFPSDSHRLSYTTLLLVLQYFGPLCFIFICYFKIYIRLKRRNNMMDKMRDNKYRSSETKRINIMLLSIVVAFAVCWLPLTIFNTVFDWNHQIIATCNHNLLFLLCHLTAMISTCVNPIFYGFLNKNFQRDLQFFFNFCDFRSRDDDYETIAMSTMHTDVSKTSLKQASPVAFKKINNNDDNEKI

[3] = tested on: NPY-induced increase in intracellular Ca++ in SK-N-MG cells
[4] = tested on: NPY-induced pressor response; settings: pithed rat
[5] = target: T2, human neuroblastoma cells (Homo sapiens, UniProt P25929)
T2 construct: displacing I-125 labeled NPY and PYY in human neuroblastoma cells
T2 sequence (P25929 1-384): T1 sequence (P25929 1-384)

[6] = tested on: NPY-related increases in diastolic blood pressure; settings: anesthetized guinea pig model
[7] = tested on: NPY-induced Ca++ entry in HEL cells

## O=P(O)(O)OC1[C@H](OP(=O)(O)O)[C@H](O)C(O)[C@H](O)[C@H]1OP(=O)(O)O (stereo partly drawn) [D-Myo-inositol-1,2,6-triphosphate]
[1]
  antagonism of NPY-induced contractions (in words): potent but non-competitive antagonist

## NC(N)=NCCC[C@@H](NC(=O)C(c1ccccc1)c1ccccc1)C(=O)NCc1ccc(O)cc1 [BIBP 3226]
[2]
  displacement of I-125 Bolton-Hunter labeled NPY (in words): displaces
[3]
  antagonism of NPY-induced increase in intracellular Ca++ (in words): antagonized
[4]
  antagonism of NPY-induced pressor response (in words): antagonizing

## CN(C)CC1CCC(CN=C(N)c2ccc(C[C@@H](NC(=O)[C@@H](Cc3ccccc3)NS(=O)(=O)c3ccc4ccccc4c3)C(=O)N3CCCC3)cc2)CC1 (some centres unmarked) [SR 120819A]
[5]
  displacement of I-125 labeled NPY and PYY (in words): displacing
[6]
  antagonism of NPY-related increases in diastolic blood pressure (in words): antagonized

## N=C(NCCCc1cnc[nH]1)NCCC(c1cc(F)cc(F)c1)c1ccccn1 (centres unmarked) [He 90481]
[7]
  antagonism of NPY-induced Ca++ entry (in words): weak but competitive antagonist
  pA2, antagonism of NPY-induced Ca++ entry: 4.43
